Measured values from ChEMBL document CHEMBL3988442, “University of Dundee, Small-Polar-MMV Screening Library” (2021).
Where “and” joins values, the source holds several entries; their conditions need not be identical. Equal values may be shown once.

Columns and labels:
[1] = biological target: Polyketide synthase Pks13 (Mycobacterium tuberculosis (strain ATCC 25618 / H37Rv), UniProt I6X8D2); assay: Mycobacterium tuberculosis Polyketide synthase 13 Thioesterase (PKS13); format: functional
[2] = biological target: T1, Histidine--tRNA ligase (Leishmania infantum, UniProt A4I591); assay: Leishmania infantum Histidine tRNA synthetase (LdHisRS); format: functional
T1 sequence (A4I591 whole entry): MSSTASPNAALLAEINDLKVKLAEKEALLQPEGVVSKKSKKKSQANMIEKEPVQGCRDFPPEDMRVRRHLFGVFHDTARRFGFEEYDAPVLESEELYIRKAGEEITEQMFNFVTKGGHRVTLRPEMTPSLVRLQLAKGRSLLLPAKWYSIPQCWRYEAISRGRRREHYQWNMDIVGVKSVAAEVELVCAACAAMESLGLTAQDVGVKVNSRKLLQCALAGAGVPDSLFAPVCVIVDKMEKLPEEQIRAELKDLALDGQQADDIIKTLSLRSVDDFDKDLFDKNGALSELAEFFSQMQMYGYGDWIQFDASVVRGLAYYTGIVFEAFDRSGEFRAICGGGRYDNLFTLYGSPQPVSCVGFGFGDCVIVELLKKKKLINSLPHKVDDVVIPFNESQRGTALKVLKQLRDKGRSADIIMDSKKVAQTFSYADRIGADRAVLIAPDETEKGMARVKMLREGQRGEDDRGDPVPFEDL

[3] = biological target: Lysine--tRNA ligase (Plasmodium falciparum (isolate 3D7), UniProt Q8IDJ8); assay: Pf-KRS-1 (Lysyl-RNA Synthetase-1, KRS-1, cytosolic KRS) from Plasmodium falciparum. Inhibitor assay, 384 well plate, luminescence read.; format: functional
Sequence of Lysine--tRNA ligase (Q8IDJ8 whole entry): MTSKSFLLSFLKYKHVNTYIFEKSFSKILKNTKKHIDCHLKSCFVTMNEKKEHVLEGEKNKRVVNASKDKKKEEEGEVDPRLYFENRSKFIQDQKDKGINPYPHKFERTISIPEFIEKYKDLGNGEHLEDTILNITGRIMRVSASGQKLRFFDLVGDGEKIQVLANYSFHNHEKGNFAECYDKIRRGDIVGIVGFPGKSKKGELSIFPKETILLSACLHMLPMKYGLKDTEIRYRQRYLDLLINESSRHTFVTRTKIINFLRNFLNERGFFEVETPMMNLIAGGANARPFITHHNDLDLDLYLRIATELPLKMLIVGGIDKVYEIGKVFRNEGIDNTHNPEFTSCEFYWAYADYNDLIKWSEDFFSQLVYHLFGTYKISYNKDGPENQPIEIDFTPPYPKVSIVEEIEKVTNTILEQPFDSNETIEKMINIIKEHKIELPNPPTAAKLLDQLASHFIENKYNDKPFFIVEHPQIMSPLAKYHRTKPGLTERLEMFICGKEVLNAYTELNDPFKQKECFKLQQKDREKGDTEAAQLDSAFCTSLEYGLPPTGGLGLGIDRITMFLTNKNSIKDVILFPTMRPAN

[4] = microbe, parasite or virus in culture; settings: Mycobacterium tuberculosis, 72 h, read-out: pIC50 (converted)
[5] = microbe, parasite or virus in culture; settings: Mycobacterium tuberculosis, 96 h, read-out: pIC50 (converted)
[6] = tested on: Plasmodium falciparum; assay: Calibr Malaria Delayed Death Assay SOP; format: functional, organism-based
[7] = In vitro enzyme assay to detect hydrolysis of chlorophenol red-beta-D-[…] directly proportional to the number of Toxoplasma stably expressing beta-galactosidase; format: functional, organism-based, Toxoplasma gondii; settings: for IC50: Toxoplasma gondii
[8] = biological target: T2, Coenzyme A biosynthesis bifunctional protein CoaBC (Mycobacterium tuberculosis (strain ATCC 25618 / H37Rv), UniProt P9WNZ1); assay: Biomol Green assay for MtCoaBC inhibitor, OD650 read; format: functional
T2 sequence (P9WNZ1 whole entry): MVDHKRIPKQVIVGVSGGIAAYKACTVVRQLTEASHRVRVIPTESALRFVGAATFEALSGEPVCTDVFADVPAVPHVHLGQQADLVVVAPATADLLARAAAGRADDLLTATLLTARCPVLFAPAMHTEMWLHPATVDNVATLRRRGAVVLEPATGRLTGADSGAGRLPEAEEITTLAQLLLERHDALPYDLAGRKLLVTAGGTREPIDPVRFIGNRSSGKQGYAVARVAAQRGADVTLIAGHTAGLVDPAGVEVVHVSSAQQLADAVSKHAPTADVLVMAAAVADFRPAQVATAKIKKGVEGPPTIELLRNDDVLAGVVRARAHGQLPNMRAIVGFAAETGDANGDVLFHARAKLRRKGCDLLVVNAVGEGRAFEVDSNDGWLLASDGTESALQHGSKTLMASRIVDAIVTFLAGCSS

[9] = biological target: Tryptophan--tRNA ligase (Mycobacterium tuberculosis (strain ATCC 25618 / H37Rv), UniProt P9WFT3); assay: Biochemical assay for Mt-TrpRS; format: functional
Sequence of Tryptophan--tRNA ligase (P9WFT3 whole entry): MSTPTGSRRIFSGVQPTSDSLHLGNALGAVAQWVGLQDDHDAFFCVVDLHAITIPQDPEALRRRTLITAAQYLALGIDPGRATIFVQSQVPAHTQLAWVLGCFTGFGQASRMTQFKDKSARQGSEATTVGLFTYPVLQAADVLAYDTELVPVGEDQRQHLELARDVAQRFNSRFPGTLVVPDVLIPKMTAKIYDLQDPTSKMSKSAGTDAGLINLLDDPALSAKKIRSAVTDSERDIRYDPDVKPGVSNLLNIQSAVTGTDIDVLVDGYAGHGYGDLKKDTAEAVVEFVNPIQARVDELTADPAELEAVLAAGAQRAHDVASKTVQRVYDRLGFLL

[10] = tested on: Leishmania donovani; assay: Leishmania intramacrophage assay; format: functional, organism-based; settings: Leishmania donovani
[11] = biological target: ClpP1P2 (Mycobacterium tuberculosis (strain ATCC 25618 / H37Rv), UniProt P9WPC3+P9WPC5); assay: in vitro assay to detect presence of AMC directly proportional to the activity of ClpP1P2. GHDDI collaboration.; format: functional
Sequence of ClpP1P2 (P9WPC5 whole entry): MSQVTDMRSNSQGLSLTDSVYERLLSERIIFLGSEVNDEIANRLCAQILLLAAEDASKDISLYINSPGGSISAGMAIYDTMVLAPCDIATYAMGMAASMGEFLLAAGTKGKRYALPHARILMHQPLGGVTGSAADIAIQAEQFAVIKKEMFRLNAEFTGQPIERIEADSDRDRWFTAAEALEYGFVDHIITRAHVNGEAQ
Sequence of ClpP1P2 (P9WPC3 whole entry): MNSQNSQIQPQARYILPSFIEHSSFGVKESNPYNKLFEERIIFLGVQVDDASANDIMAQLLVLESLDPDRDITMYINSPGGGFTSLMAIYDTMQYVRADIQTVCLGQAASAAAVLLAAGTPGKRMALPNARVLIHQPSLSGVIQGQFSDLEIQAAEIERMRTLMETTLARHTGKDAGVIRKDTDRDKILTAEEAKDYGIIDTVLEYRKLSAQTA

[12] = tested on: Schistosoma mansoni; assay: High throughput screening of compounds against Schistosoma mansoni motility; format: functional; parameters: dose or concentration left out as unconfirmed

Sequence of Polyketide synthase Pks13 (I6X8D2 whole entry): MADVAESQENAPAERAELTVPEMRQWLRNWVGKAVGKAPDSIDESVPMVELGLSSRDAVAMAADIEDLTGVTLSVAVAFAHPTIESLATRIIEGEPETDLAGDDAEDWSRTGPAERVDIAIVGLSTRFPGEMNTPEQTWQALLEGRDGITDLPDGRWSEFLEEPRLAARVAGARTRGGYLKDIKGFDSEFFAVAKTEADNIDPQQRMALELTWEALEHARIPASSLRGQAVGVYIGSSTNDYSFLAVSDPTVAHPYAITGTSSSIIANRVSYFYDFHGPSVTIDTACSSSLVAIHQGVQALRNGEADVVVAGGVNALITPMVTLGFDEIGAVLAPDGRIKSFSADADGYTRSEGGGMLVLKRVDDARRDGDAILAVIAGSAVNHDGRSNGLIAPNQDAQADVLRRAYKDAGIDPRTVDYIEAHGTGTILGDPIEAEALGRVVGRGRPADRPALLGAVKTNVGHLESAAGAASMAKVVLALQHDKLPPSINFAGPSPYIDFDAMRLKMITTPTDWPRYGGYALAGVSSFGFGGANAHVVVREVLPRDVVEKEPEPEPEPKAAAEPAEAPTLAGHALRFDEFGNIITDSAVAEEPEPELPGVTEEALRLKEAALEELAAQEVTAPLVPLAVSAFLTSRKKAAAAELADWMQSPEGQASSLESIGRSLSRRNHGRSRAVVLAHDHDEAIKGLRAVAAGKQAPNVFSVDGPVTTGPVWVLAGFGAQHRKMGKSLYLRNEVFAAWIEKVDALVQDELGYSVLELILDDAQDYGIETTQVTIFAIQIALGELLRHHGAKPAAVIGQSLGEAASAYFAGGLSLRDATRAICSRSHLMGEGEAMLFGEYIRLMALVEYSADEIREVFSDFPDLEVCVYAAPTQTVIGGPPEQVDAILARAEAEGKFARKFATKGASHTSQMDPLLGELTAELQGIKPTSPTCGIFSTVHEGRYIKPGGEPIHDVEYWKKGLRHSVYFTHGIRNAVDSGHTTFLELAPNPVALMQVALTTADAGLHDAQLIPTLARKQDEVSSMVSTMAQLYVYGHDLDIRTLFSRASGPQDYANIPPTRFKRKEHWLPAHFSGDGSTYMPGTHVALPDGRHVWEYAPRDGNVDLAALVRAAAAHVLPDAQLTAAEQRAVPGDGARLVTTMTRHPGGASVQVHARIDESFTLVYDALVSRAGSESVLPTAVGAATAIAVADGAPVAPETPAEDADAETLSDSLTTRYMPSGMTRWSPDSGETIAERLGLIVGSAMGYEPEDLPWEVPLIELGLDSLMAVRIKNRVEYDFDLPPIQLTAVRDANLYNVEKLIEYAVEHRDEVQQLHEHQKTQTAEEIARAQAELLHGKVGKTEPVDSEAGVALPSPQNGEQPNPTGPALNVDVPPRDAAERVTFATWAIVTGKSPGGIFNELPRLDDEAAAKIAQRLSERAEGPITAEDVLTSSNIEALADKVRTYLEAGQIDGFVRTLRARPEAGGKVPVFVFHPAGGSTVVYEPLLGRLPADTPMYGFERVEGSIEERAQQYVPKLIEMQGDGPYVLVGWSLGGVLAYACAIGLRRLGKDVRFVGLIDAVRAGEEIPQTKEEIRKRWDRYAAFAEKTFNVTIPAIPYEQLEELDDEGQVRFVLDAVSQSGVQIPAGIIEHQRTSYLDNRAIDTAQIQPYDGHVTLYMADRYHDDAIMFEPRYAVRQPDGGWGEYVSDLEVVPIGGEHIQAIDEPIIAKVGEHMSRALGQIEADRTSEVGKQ

Row | SMILES | IC50 [2] | IC50 [3] [µM] | other results
1 | COc1ccc(-c2cc(C[C@@H]3C[C@H](N(C)C)C3(C)C)no2)cc1 |  |  | IC50 [1]: 41.5 µM and > 100 µM
2 | CC1=C(C#N)C(=O)N(C)C(=O)/C1=C\C1=Cc2ccccc2OC1 | 1.12 µM and 1.35 µM and 1.76 µM and 1.15 µM | > 50.1 | 
3 | CCc1ccc(S(=O)(=O)NCC2CCN(c3cnccn3)CC2)s1 |  |  | IC50 [1]: 18.4 µM and 29.5 µM
4 | O=C(Nc1nc2c(s1)CN(S(=O)(=O)C1CC1)CC2)c1cccc(Cl)c1 |  |  | IC50 [1]: 12.2 µM and 20.2 µM
5 | CC(C)CN1C[C@H]2CCN(C(=O)C3CCCO3)CC[C@H]2S1(=O)=O (stereo not given in full) |  | > 50.1 | IC50 [4]: > 50.1 µM; IC50 [5]: > 50.1 µM
6 | COC(=O)c1ccc(OC)c(Cn2cc(N)cn2)c1 | 56.4 µM and 66 µM | > 50.1 | 
7 | CCc1ccc(-c2cc(C(F)(F)F)nc(N3CCC(N)CC3)n2)cc1 | 26.9 µM and 24.6 µM | > 50.1 | pIC50 [6]: 5.997; IC50 ([6]; Plasmodium falciparum): 1.03 µM; IC50 [4]: 13 µM; IC50 [5]: 15.3 µM; pIC50 [7]: 5.409; IC50 [7]: 2.22 µM
8 | O=C(c1ccc2c(c1)CCCC2)N1CCn2ncnc2C1 |  | > 50.1 | IC50 [8]: > 30.2 µM
9 | O=C(Cc1ccc(F)cc1)N1CCCC(c2n[nH]c3nccnc23)C1 (stereo not given) |  | > 50.1 | IC50 [9]: > 195 µM
10 | CC(C)NC(=O)N1CCC(c2nnc3n2CCNC3)CC1 | 14.9 µM and 14.8 µM | > 50.1 | 
11 | Cn1nc2c(cc1=O)CN(CC1CCCCO1)CC2 (stereo not given) | 23.7 µM and 25 µM | > 50.1 | 
12 | Cc1noc(C(C)Nc2ccc3oc(C)nc3c2)n1 (stereo not given) | 23.9 µM and 20.4 µM | > 50.1 | 
13 | Cc1noc(C(C)Nc2ccc3oc(C(C)C)nc3c2)n1 (stereo not given) | 34.3 µM and 43.8 µM | > 50.1 | 
14 | Cc1nnc(N2CCc3cncnc3C2)c(C#N)c1C | 21.4 µM and 27.5 µM | > 50.1 | 
15 | Cn1nc2c(cc1=O)CN(c1ncnc3sccc13)CC2 | 6.32 µM and 5.55 µM | > 50.1 | IC50 [8]: > 30.2 µM; IC50 [7]: 9.58 µM
16 | CCCn1nc2c(cc1=O)CN(c1ncnc3ccsc13)CC2 | 43.5 µM and 33.5 µM | > 50.1 | 
17 | Cc1nnc(NCC(c2ccco2)N2CCCC2)c(C#N)c1C (stereo not given) | 27.1 µM and 17.8 µM | > 50.1 | 
18 | COc1ccc(N)c(N2CCN(C(C)=O)CC2)n1 | 16.5 µM and 15.6 µM | > 50.1 | 
19 | CC(C(=O)Nc1ccc(Cl)cn1)N1CCc2nn(C)c(=O)cc2C1 (stereo not given) | 19.9 µM and 23 µM | > 50.1 | 

Row | SMILES | IC50 [2] | IC50 [3] [µM] | other results
20 | COc1ncc(C)cc1NC(=O)COCC(F)(F)F | 25.3 µM and 19.4 µM | > 50.1 | 
21 | Cn1cc(Br)cc(NC(=O)CC(C)(C)C)c1=O | 13.9 µM and 12 µM | > 50.1 | 
22 | Cn1cc(Br)cc(NC(=O)CC2CCC2)c1=O | > 100 µM | > 50.1 | 
23 | COCCn1cc(NC(=O)NC(C)CCc2ccccc2)ccc1=O (stereo not given) | 3.09 µM and 3.5 µM | > 50.1 | 
24 | Cc1cc(=O)n(C)cc1NC(=O)CC1CCC1 | 7.56 µM and 7.2 µM | > 50.1 | 
25 | COCCn1cc(NC(=O)C(C)CCc2ccccc2F)ccc1=O (stereo not given) | 3.96 µM and 4.01 µM | > 50.1 | 
26 | Cn1nc2c(cc1=O)CN(c1ncnc3ccsc13)CC2 | 14.1 µM and 17.4 µM | > 50.1 | IC50 [7]: 6.44 µM
27 | Oc1ccc(N(CCc2ccccc2)CCn2cncn2)cc1 | 39.6 µM and 56.7 µM | > 50.1 | 
28 | CN(Cc1ccco1)C(=O)Nc1ccc(=O)n(C)c1 | 11.6 µM and 9.89 µM | > 50.1 | 
29 | Cc1occc1CN(C)C(=O)Nc1ccc(=O)n(C)c1 | 9.57 µM and 9.94 µM | > 50.1 | 
30 | COc1ccsc1C(=O)Nc1cc(Cl)c(=O)n(C)c1 | 12.3 µM and 10.6 µM | > 50.1 | IC50 [8]: > 30.2 µM
31 | COc1cc(F)c(S(=O)(=O)Nc2cnc(O)cc2C)cc1OC | 16.2 µM and 17.5 µM | > 50.1 | 
32 | COCCn1cc(NCc2cn(C)nc2-c2ccncc2)cn1 | 47.4 µM and 46.6 µM | > 50.1 | 
33 | Cn1cccc(NC(=O)N2CCC(Cc3ccccc3)C2)c1=O (stereo not given) | 9.56 µM and 6.68 µM | > 50.1 | 
34 | Cn1cccc(NC(=O)N2CCC(COCc3ccccc3)C2)c1=O (stereo not given) | 3.47 µM and 4.31 µM | > 50.1 | 
35 | Cn1cnnc1C1CCN(c2cncc(-n3cccn3)n2)CC1 |  | > 50.1 | IC50 [10]: > 50.1 µM; IC50 [11]: > 100 µM
36 | COCCN(Cc1ccc(F)cc1Cl)C(=O)c1ccc(=O)[nH]n1 |  | > 50.1 | Percent Effect [12]: -14.07%
37 | CC(NC(=O)C1=NN(C)C(=O)CC1)c1ccc(Cl)cc1Cl (stereo not given) |  | > 50.1 | Percent Effect [12]: -38.06%
38 | COCCc1ncc(-c2c(C#N)c(N)nc3c2CCc2[nH]ccc2-3)cn1 | 6.54 µM and 5.62 µM | > 50.1 | 
